This is an account of results in US20210340177A1, “BIOACTIVE PEPTIDES HAVING HIGH BINDING AFFINITY TO HUMAN MUSCULAR NICOTINIC ACETYLCHOLINE RECEPTOR” (priority 2020, published 2021).

Assay [1] concerns muscle cells. The format is cell-based. The following applies: for Contraction of muscle cells after the washing step (reversibility): incubation for 24 hours followed by a washing step. How it is done: The efficacy of peptides V0083091A (KKYK; SEQ ID NO: 1) and V0083092A (KWKK; […]. Muscle cells were incubated or treated without (control) or with compounds, for example, peptides V0083091A and V0083092A, and contraction of the muscle cells was evaluated after incubation for 5 hours, after incubation for 24 hours, or after incubation for 24 hours followed by a washing step.

The subject of assay [2] is Human epidermal keratinocytes (HEKs). Description: MTT assay on human epidermal keratinocytes in in vitro cultures. The following applies: 24 hours after treatment. (Formazan colour is commonly taken as a measure of viable cells.)
For assay [3], the target named is human muscular nicotinic acetylcholine receptor (HmnAChR) (Homo sapiens, UniProt P02708+Q04844). Description: Binding energy of peptides in the HmnAChR binding site over runs of genetic algorithm. The following applies: Table 3, difference of binding energies (no unit printed in Table 3).
Sequence of human muscular nicotinic acetylcholine receptor (HmnAChR) (P02708 21-457): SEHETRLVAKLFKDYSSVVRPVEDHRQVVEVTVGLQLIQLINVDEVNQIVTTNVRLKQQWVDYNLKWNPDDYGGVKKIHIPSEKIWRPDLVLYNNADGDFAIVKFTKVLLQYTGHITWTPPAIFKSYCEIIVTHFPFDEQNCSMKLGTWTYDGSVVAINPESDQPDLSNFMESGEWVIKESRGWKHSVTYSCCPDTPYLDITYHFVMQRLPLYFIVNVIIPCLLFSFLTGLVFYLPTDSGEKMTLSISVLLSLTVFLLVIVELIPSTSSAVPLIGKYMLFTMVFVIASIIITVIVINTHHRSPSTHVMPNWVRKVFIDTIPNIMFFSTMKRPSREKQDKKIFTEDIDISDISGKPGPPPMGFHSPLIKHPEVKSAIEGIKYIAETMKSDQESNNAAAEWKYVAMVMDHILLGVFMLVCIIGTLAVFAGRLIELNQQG
Sequence of human muscular nicotinic acetylcholine receptor (HmnAChR) (Q04844 21-493): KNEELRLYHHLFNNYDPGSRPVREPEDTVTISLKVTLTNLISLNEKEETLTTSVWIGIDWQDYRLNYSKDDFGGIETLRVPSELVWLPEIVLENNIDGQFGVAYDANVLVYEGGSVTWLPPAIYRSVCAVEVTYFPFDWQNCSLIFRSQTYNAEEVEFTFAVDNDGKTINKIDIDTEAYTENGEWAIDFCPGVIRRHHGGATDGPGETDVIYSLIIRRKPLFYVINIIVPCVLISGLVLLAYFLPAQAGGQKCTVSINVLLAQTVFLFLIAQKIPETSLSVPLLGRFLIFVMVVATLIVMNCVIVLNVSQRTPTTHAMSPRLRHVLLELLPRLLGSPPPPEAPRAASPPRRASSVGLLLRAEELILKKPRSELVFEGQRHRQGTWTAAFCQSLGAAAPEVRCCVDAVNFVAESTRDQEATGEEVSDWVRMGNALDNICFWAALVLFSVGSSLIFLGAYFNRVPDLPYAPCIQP
Sequence of human muscular nicotinic acetylcholine receptor (HmnAChR) (P11230 24-501 partner): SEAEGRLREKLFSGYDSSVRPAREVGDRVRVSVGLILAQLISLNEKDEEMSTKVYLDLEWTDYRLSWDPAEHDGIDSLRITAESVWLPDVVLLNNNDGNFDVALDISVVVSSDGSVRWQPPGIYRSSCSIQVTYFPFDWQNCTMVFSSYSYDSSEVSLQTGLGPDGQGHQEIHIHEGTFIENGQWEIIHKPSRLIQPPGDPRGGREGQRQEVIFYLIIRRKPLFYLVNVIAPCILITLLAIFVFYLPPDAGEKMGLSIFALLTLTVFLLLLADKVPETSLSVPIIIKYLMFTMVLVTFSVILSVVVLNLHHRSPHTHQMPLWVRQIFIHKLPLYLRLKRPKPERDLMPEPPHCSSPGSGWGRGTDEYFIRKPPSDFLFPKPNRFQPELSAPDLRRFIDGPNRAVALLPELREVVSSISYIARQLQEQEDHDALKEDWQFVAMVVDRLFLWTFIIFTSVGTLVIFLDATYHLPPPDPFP
Sequence of human muscular nicotinic acetylcholine receptor (HmnAChR) (Q07001 22-517 partner): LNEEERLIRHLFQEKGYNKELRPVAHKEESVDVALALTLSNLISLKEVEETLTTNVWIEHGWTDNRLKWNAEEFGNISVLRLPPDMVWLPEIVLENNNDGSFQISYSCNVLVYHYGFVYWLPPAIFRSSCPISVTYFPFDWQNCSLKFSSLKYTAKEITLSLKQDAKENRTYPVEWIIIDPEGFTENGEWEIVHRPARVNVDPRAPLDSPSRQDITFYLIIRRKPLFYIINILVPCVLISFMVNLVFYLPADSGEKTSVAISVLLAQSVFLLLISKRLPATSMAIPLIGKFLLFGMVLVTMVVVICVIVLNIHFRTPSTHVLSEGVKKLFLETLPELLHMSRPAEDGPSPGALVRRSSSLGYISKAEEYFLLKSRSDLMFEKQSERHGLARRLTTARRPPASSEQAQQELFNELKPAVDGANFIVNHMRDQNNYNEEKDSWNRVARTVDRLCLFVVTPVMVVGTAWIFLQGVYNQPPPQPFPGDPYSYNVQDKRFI
For assay [4], the target named is human muscular nicotinic acetylcholine receptor (HmnAChR) (human).
Sequence of human muscular nicotinic acetylcholine receptor (HmnAChR) (human) (P02708 21-457, chain 1 of 4): as the sequence (P02708 21-457) above
Sequence of human muscular nicotinic acetylcholine receptor (HmnAChR) (human) (P11230 24-501, chain 2 of 4, further chain): as the sequence (P11230 24-501 partner) above
Sequence of human muscular nicotinic acetylcholine receptor (HmnAChR) (human) (Q07001 22-517, chain 3 of 4, further chain): as the sequence (Q07001 22-517 partner) above
Sequence of human muscular nicotinic acetylcholine receptor (HmnAChR) (human) (Q04844 21-493, chain 4 of 4, further chain): as the sequence (Q04844 21-493) above

On to `C/C=C/C=C\CC/C=C/C(=O)NCC(C)C` [spilanthol], for which the “Inhibition of contraction of muscle cells, effect size” value in assay [1] (1 μM or 10 μM, 5 or 24 hours after incubation, p value<5%) is 1.5-2. Also, in assay [1], the “Contraction of muscle cells after the washing step (reversibility)” value is on record as “inhibitory effect was lost”.

As for Lys-Lys-Tyr-Lys [Peptide V0083091A], the “Inhibition effect on muscle cell contraction” value in assay [1] (1 μM, observable after incubation for 24 hours) is “much less inhibition effect”. In assay [1], the “Contraction of muscle cells after the washing step (reversibility)” value was “no clear recovery of the contraction power”. Further, in assay [2], the “Proliferation of the HEKs” value was “induced proliferation”.

For the molecule “dipeptide diaminobutyroyl benzylamide diacetate [SYN ®-AKE]”, the “(Best Result − Average)” value in assay [3] is -3.01 kcal/mol.

In assay [4], peptide V0083091A (KKYK; SEQ ID NO: 1) had a Binding Energy, All 100 Average of -8.39 kcal/mol; a Binding Energy, Best Result of -11.4 kcal/mol; a Binding Energy, Top 10 Average of -10.2 kcal/mol.
